Where a name gives a salt, the structure may show the parent alone. Read-outs that look alike come from different tables or passages of the source.
How the values were obtained:
[1] = tested on: FTH-BC-TBP ferritin; test: one-step incorporation of DOX into mutant ferritin FTH-BC-TBP; type: physicochemical, human; details: pH 8, 50° C., 60 minutes, DOX 0.3 mg/L
Experimental: Total synthesis was carried out for a DNA encoding a human-derived ferritin H chain (FTH-BC-TBP) monomer in which a titanium recognizing peptide (minTBP1: RKLPDA (SEQ ID NO: 7)) was inserted for fusion at a flexible linker region between second and third α-helices counted from an N-terminus of a ferritin monomer comprising six α-helices. PCR was carried out using the synthesized DNA as a template as well as the following primers: 5′-[…]-3′ (SEQ ID NO: 8) and 5′-[…]-3′ (SEQ ID NO: 9). PCR was carried out using pET20 (Merck KGaA) as a template as well as the following primers: 5′-[…]-3′ (SEQ ID NO: 10) and 5′-[…]-3′ (SEQ ID NO: 11). […]
(§1) DOX was mixed with 1 mL of 50 mM Tris-HCl buffer (pH 8) that contains each mutate ferritin at a final concentration of 1 mg/mL, to achieve a final concentration of 0.3 mg/L, and then the resulting solutions were left to stand at 50° C. for 60 minutes. […] The concentration of contained protein was determined using the protein assay CBB solution (Nacalai Tesque, Inc.) as well as bovine albumin as a standard. The DOX concentration was determined based on analysis of the absorbance at 480 nm.

[2] = molecular target: T1, FTHc ferritin (Homo sapiens, UniProt P02794); test: one-step incorporation of DOX into mutant ferritin FTHc; type: physicochemical; details: pH 8, 50° C., 60 minutes, DOX 0.3 mg/L
T1 construct: pET20-FTH carrying a DNA encoding a human-derived ferritin H chain monomer as a template; single cysteine residue (C) appended; made in house; host or cells: Escherichia coli BL21 (DE3), plasmid pET20-FTHc
T1 sequence (P02794 with tags, fused parts or gaps): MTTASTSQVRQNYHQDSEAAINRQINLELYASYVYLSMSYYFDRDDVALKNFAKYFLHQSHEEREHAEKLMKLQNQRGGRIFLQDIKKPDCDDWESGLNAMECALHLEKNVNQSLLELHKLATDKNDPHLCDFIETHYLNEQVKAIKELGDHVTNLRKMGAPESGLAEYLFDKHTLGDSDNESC
Experimental: PCR was carried out using pET20-FTH carrying a DNA encoding a human-derived ferritin H chain monomer as a template as well as the following primers: 5′-[…]-3′ (SEQ ID NO: 12) and 5′-[…]-3′ (SEQ ID NO: 13). The resulting PCR products were purified using Wizard DNA Clean-Up System (Promega Corporation), and then treated with restriction enzymes, Dpnl and BamHI (Takara Bio Inc.) for self-ligation in order to construct an expression plasmid (pET20-FTHc) carrying a gene encoding FTHc monomer with a cysteine added to the C-terminus. Ferritin including FTHc monomers is referred to as FTHc ferritin, as appropriate.
as §1, with “minutes. After the standing and centrifuging (at 15,000 rpm for one minute), the supernatant was injected into the desalting column PD-10 (Sephadex G-25 filled product, GE Healthcare Inc.) equilibrated with 10 mM Tris-HCl buffer (pH 8) to separate the protein from a reagent that was not encapsulated.” for “minutes.”

[3] = molecular target: T2, FTL ferritin (Homo sapiens, UniProt P02792); test: one-step incorporation of DOX into FTL ferritin; type: physicochemical; details: pH 8, 50° C., 60 minutes, DOX 0.3 mg/L
T2 construct: made in house; host or cells: Escherichia coli BL21 (DE3), plasmid pET20-FTL
T2 sequence (P02792 whole entry): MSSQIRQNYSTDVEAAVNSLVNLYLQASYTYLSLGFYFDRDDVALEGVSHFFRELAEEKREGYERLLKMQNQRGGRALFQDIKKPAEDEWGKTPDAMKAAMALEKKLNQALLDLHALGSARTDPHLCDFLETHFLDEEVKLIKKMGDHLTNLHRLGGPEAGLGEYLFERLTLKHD
Experimental: The incorporation of the reagent into L chain reagent was carried out using the one-step process. Total synthesis was carried out for a DNA encoding a human-derived ferritin L chain (FTL (SEQ ID NO: 2)) monomer. PCR was carried out using the synthesized DNA as a template as well as the following primers: 5′-[…]-3′ (SEQ ID NO: 234) and 5′-[…]-3′ (SEQ ID NO: 235). PCR was carried out using pET20 (Merck KGaA) as a template as well as the following primers: 5′-[…]-3′ (SEQ ID NO: 5) and 5′-[…]-3′ (SEQ ID NO: 6). The resulting PCR products were purified using Wizard DNA Clean-Up System (Promega Corporation), and then subjected to In-Fusion enzyme treatment at 50° C. for 15 minutes using In-Fusion HD Cloning Kit (Takara Bio Inc.) to construct an expression plasmid (pET20-FTL) carrying a gene encoding FTL monomer.
as §1, with “mutate FTL” for “mutate”

[4] = cited from earlier work
[5] = pKa of the organic compound; type: physicochemical; details: average of plural pKa values
Excerpt: The pKa of the organic compound can be determined by a neutralization titration method (Kagaku Binran Kiso-hen I and II (Handbook of Chemistry, basic I and II) (Ver. 4) edited by The Chemical Society of Japan, Maruzen Publishing, 1993). […] When the organic compound has a single pKa value, the value is employed as the pKa of the organic compound.

[6] = room temperature; cited from earlier work

## COc1cccc2c1C(=O)c1c(O)c3c(c(O)c1C2=O)C[C@@](O)(C(=O)CO)C[C@@H]3OC1CC(N)C(O)C(C)O1 (some centres unmarked) [DOX, Doxorubicin hydrochloride]
[1]
  incorporation efficiency of the reagent: 6.5 % (wt)
[2]
  incorporation efficiency of the reagent: 8.6 % (wt)
[3]
  incorporation efficiency of the reagent: 7.0 % (wt)
[4]; second pKa value
  pKa: 8.46
[4]; single or first pKa value
  pKa: 7.34
[4]; third printed pKa value
  pKa: 9.46
[5]
  pKa: 8.42
[6]
  solubility of DOX in water: ≥ 60 g/L
